In brackets after ≈: the same amount, converted by molar mass. Activity calls are given as the source filed them. No cut-off for these calls is given here.

For orientation: MIC means the lowest concentration found to suppress growth.

The first experiment relates to Aspergillus niger. The experiment is described as follows: Antimicrobial activity against Aspergillus niger assessed as growth inhibition zone after 48 hr by agar cup bioassay. The experiment is classed as functional, organism-based.
Details: not given
Consider `O=C1NC(=O)C(=Cc2cn(-c3ccccc3)nc2-c2cc3cc4ccccc4cc3oc2=O)C(=O)N1`, for which the “growth inhibition (GI)” value is “inactive”.

Turning to `O=C1NC(=S)NC(=O)C1=Cc1cn(-c2ccccc2)nc1-c1cc2cc(Cl)c(Cl)cc2oc1=O`, the “growth inhibition (GI)” value was “inactive”.

Regarding `O=C1NC(=S)NC(=O)C1=Cc1cn(-c2ccccc2)nc1-c1cc2cc(Cl)ccc2oc1=O`, the “growth inhibition (GI)” value is “inactive”.

The next experiment deals with Aspergillus niger. The experiment is described as follows: Antimicrobial activity against Aspergillus niger assessed as diameter of growth inhibition zone at 30 ug/ml after 48 hr by agar cup bioassay. The experiment is classed as functional. The settings on record: read-out: DIZ.
Regarding `OC(Cn1cncn1)(Cn1cncn1)c1ccc(F)cc1F` [FLUCONAZOLE], the zone of inhibition at 30 µg/mL is 30 mm.

In a further experiment the test system is Aspergillus niger. The experiment is described as follows: Antimicrobial activity against Aspergillus niger assessed as diameter of growth inhibition zone at 150 ug/ml after 48 hr by agar cup bioassay. Conditions: read-out: DIZ. The experiment is classed as functional.
On to `O=C1NC(=O)C(=Cc2cn(-c3ccccc3)nc2-c2cc3cc(Br)ccc3oc2=O)C(=O)N1`, for which the zone of inhibition at 150 µg/mL was determined as 20 mm.

As to `O=C1NC(=O)C(=Cc2cn(-c3ccccc3)nc2-c2cc3cc(Br)c(Br)cc3oc2=O)C(=O)N1`, the zone of inhibition at 150 µg/mL amounted to 10 mm.

A further experiment relates to Aspergillus niger. The experiment is described as follows: Antimicrobial activity against Aspergillus niger assessed as diameter of growth inhibition zone at 100 ug/ml after 48 hr by agar cup bioassay. The experiment is classed as functional. The settings on record: read-out: DIZ.
On to `O=C1NC(=O)C(=Cc2cn(-c3ccccc3)nc2-c2cc3cc(Br)ccc3oc2=O)C(=O)N1`, for which the zone of inhibition at 100 µg/mL was 14 mm.

On to `O=C1NC(=O)C(=Cc2cn(-c3ccccc3)nc2-c2cc3cc(Br)c(Br)cc3oc2=O)C(=O)N1`, for which the zone of inhibition at 100 µg/mL turned out to be 7 mm.

Another experiment concerns Klebsiella pneumoniae. The experiment is described as follows: Antimicrobial activity against Klebsiella pneumoniae assessed as growth inhibition after 24 hr by broth dilution method. The experiment is classed as functional.
Details: not given
(In general: Broth dilution looks for growth in wells or tubes with falling amounts of substance.)
Consider `O=C1NC(=O)C(=Cc2cn(-c3ccccc3)nc2-c2cc3cc(Br)ccc3oc2=O)C(=O)N1`, for which the MIC was found to be 150 µg/mL (≈ 297 µM).

For the compound `O=C1NC(=O)C(=Cc2cn(-c3ccccc3)nc2-c2cc3cc4ccccc4cc3oc2=O)C(=O)N1`, the MIC turned out to be 300 µg/mL (≈ 630 µM).

As to `O=C1NC(=S)NC(=O)C1=Cc1cn(-c2ccccc2)nc1-c1cc2cc(Cl)c(Cl)cc2oc1=O`, the MIC came out at 150 µg/mL (≈ 293 µM).

`O=C(O)c1cn(C2CC2)c2cc(N3CCNCC3)c(F)cc2c1=O` [CIPROFLOXACIN]: the MIC is 25 µg/mL (≈ 75.4 µM).

Consider `O=C1NC(=S)NC(=O)C1=Cc1cn(-c2ccccc2)nc1-c1cc2cc(Cl)ccc2oc1=O`, for which the MIC was determined as 150 µg/mL (≈ 315 µM).

Take `O=C1NC(=O)C(=Cc2cn(-c3ccccc3)nc2-c2cc3cc(Br)c(Br)cc3oc2=O)C(=O)N1`: the minimum inhibitory concentration (MIC) worked out at 300 µg/mL (≈ 514 µM).

The next experiment deals with Pseudomonas aeruginosa. The experiment is described as follows: Antimicrobial activity against Pseudomonas aeruginosa assessed as growth inhibition after 24 hr by broth dilution method. Type of experiment: functional.
Details: not given
In the case of `O=C1NC(=O)C(=Cc2cn(-c3ccccc3)nc2-c2cc3cc(Br)ccc3oc2=O)C(=O)N1`, the MIC was 600 µg/mL (≈ 1190 µM).

On to `O=C1NC(=O)C(=Cc2cn(-c3ccccc3)nc2-c2cc3cc4ccccc4cc3oc2=O)C(=O)N1`, for which the MIC stood at 150 µg/mL (≈ 315 µM).

On to `O=C1NC(=S)NC(=O)C1=Cc1cn(-c2ccccc2)nc1-c1cc2cc(Cl)c(Cl)cc2oc1=O`, for which the MIC was found to be 300 µg/mL (≈ 587 µM).

For the compound `O=C1NC(=S)NC(=O)C1=Cc1cn(-c2ccccc2)nc1-c1cc2cc(Cl)ccc2oc1=O`, the minimal inhibitory concentration (MIC) was 150 µg/mL (≈ 315 µM).

Turning to `O=C1NC(=O)C(=Cc2cn(-c3ccccc3)nc2-c2cc3cc(Br)c(Br)cc3oc2=O)C(=O)N1`, the minimum inhibitory concentration (MIC) was determined as 150 µg/mL (≈ 257 µM).

Another experiment has as its system Escherichia coli. The experiment is described as follows: Antimicrobial activity against Escherichia coli assessed as growth inhibition after 24 hr by broth dilution method.
Details: not given
The experiment is classed as functional.
`O=C1NC(=O)C(=Cc2cn(-c3ccccc3)nc2-c2cc3cc(Br)ccc3oc2=O)C(=O)N1`: the MIC stood at 600 µg/mL (≈ 1190 µM).

As for `O=C1NC(=O)C(=Cc2cn(-c3ccccc3)nc2-c2cc3cc4ccccc4cc3oc2=O)C(=O)N1`, the minimum inhibitory concentration (MIC) was found to be 300 µg/mL (≈ 630 µM).

With `O=C1NC(=S)NC(=O)C1=Cc1cn(-c2ccccc2)nc1-c1cc2cc(Cl)c(Cl)cc2oc1=O`, the MIC came out at 600 µg/mL (≈ 1170 µM).

With `O=C(O)c1cn(C2CC2)c2cc(N3CCNCC3)c(F)cc2c1=O` [CIPROFLOXACIN], the MIC turned out to be 20 µg/mL (≈ 60.4 µM).

With `O=C1NC(=S)NC(=O)C1=Cc1cn(-c2ccccc2)nc1-c1cc2cc(Cl)ccc2oc1=O`, the MIC came to 300 µg/mL (≈ 629 µM).

Consider `O=C1NC(=O)C(=Cc2cn(-c3ccccc3)nc2-c2cc3cc(Br)c(Br)cc3oc2=O)C(=O)N1`, for which the MIC came out at 150 µg/mL (≈ 257 µM).

In a further experiment the test system is Staphylococcus epidermidis. The experiment is described as follows: Antimicrobial activity against Staphylococcus epidermidis assessed as growth inhibition after 24 hr by broth dilution method. Type of experiment: functional.
Details: not given
Take `O=C1NC(=O)C(=Cc2cn(-c3ccccc3)nc2-c2cc3cc(Br)ccc3oc2=O)C(=O)N1`: the MIC came out at 150 µg/mL (≈ 297 µM).

Take `O=C1NC(=O)C(=Cc2cn(-c3ccccc3)nc2-c2cc3cc4ccccc4cc3oc2=O)C(=O)N1`: the MIC amounted to 300 µg/mL (≈ 630 µM).

As for `O=C1NC(=S)NC(=O)C1=Cc1cn(-c2ccccc2)nc1-c1cc2cc(Cl)c(Cl)cc2oc1=O`, the MIC came to 300 µg/mL (≈ 587 µM).

As to `O=C(O)c1cn(C2CC2)c2cc(N3CCNCC3)c(F)cc2c1=O` [CIPROFLOXACIN], the MIC came to 22 µg/mL (≈ 66.4 µM).

As for `O=C1NC(=S)NC(=O)C1=Cc1cn(-c2ccccc2)nc1-c1cc2cc(Cl)ccc2oc1=O`, the minimal inhibitory concentration (MIC) turned out to be 600 µg/mL (≈ 1260 µM).

Regarding `O=C1NC(=O)C(=Cc2cn(-c3ccccc3)nc2-c2cc3cc(Br)c(Br)cc3oc2=O)C(=O)N1`, the MIC is 150 µg/mL (≈ 257 µM).

Another experiment concerns Staphylococcus aureus. The experiment is described as follows: Antimicrobial activity against Staphylococcus aureus assessed as growth inhibition after 24 hr by broth dilution method.
Details: not given
Type of experiment: functional.
Take `O=C1NC(=O)C(=Cc2cn(-c3ccccc3)nc2-c2cc3cc(Br)ccc3oc2=O)C(=O)N1`: the MIC turned out to be 150 µg/mL (≈ 297 µM).

For the compound `O=C1NC(=O)C(=Cc2cn(-c3ccccc3)nc2-c2cc3cc4ccccc4cc3oc2=O)C(=O)N1`, the MIC came to 300 µg/mL (≈ 630 µM).

Regarding `O=C1NC(=S)NC(=O)C1=Cc1cn(-c2ccccc2)nc1-c1cc2cc(Cl)c(Cl)cc2oc1=O`, the minimum inhibitory concentration (MIC) is 150 µg/mL (≈ 293 µM).

`O=C1NC(=S)NC(=O)C1=Cc1cn(-c2ccccc2)nc1-c1cc2cc(Cl)ccc2oc1=O`: the MIC was found to be 300 µg/mL (≈ 629 µM).

For the compound `O=C1NC(=O)C(=Cc2cn(-c3ccccc3)nc2-c2cc3cc(Br)c(Br)cc3oc2=O)C(=O)N1`, the MIC stood at 150 µg/mL (≈ 257 µM).

The test system of a further experiment is Bacillus subtilis. The experiment is described as follows: Antimicrobial activity against Bacillus subtilis assessed as growth inhibition after 24 hr by broth dilution method.
Details: not given
Type of experiment: functional.
In the case of `O=C1NC(=O)C(=Cc2cn(-c3ccccc3)nc2-c2cc3cc(Br)ccc3oc2=O)C(=O)N1`, the MIC was found to be 150 µg/mL (≈ 297 µM).

For `O=C1NC(=O)C(=Cc2cn(-c3ccccc3)nc2-c2cc3cc4ccccc4cc3oc2=O)C(=O)N1`, the MIC was 150 µg/mL (≈ 315 µM).

`O=C1NC(=S)NC(=O)C1=Cc1cn(-c2ccccc2)nc1-c1cc2cc(Cl)c(Cl)cc2oc1=O`: the MIC came out at 300 µg/mL (≈ 587 µM).

On to `O=C(O)c1cn(C2CC2)c2cc(N3CCNCC3)c(F)cc2c1=O` [CIPROFLOXACIN], for which the MIC is 24 µg/mL (≈ 72.4 µM).

Consider `O=C1NC(=S)NC(=O)C1=Cc1cn(-c2ccccc2)nc1-c1cc2cc(Cl)ccc2oc1=O`, for which the MIC amounted to 150 µg/mL (≈ 315 µM).

Turning to `O=C1NC(=O)C(=Cc2cn(-c3ccccc3)nc2-c2cc3cc(Br)c(Br)cc3oc2=O)C(=O)N1`, the minimal inhibitory concentration (MIC) was 150 µg/mL (≈ 257 µM).
